Measurements from patent US7384629B2, “Biological control of nematodes with Hirsutella minnesotensis” (Regents of the University of Minnesota, priority 2000, dated 2008).

System: Hirsutella rhossiliensis
Assay: Effect of nitrogen source on growth, sporulation and spore germination
Conditions: nitrogen source 0.3296 g/L nitrogen; isolate ATCC46487; 5 weeks

| SMILES | Growth mm-in-diam, on agar [mm-in-diam] |
| --- | --- |
| N[C@@H](CSSC[C@H](N)C(=O)O)C(=O)O [L-cystine] | 0.0 |
| NC(N)=O [Urea] | 43.5 |
| C[C@@H](O)[C@H](N)C(=O)O (racemic) [DL-Threonine] | 25.4 |
| NC(CO)C(=O)O (racemic) [DL-Serine] | 45.3 |
| NCC(=O)O [Glycine] | 41.5 |
| NC(=O)C[C@H](N)C(=O)O [L-Asparagine] | 51.8 |
| CSCCC(N)C(=O)O (racemic) [DL-Methionine] | 11.7 |
| N[C@@H](Cc1ccccc1)C(=O)O [L-Phenylalanine] | 34.3 |
| NC(CCC(=O)O)C(=O)O (racemic) [DL-Glutamic acid] | 40.8 |

Same assay, conditions: nitrogen source 0.3296 g/L nitrogen; isolate JA16-1; 5 weeks

| SMILES | Growth mm-in-diam, on agar [mm-in-diam] |
| --- | --- |
| N[C@@H](CSSC[C@H](N)C(=O)O)C(=O)O [L-cystine] | 0.0 |
| NC(N)=O [Urea] | 14.0 |
| C[C@@H](O)[C@H](N)C(=O)O (racemic) [DL-Threonine] | 8.3 |
| NC(CO)C(=O)O (racemic) [DL-Serine] | 10.2 |
| NCC(=O)O [Glycine] | 7.5 |
| NC(=O)C[C@H](N)C(=O)O [L-Asparagine] | 16.5 |
| CSCCC(N)C(=O)O (racemic) [DL-Methionine] | 0.0 |
| N[C@@H](Cc1ccccc1)C(=O)O [L-Phenylalanine] | 11.7 |
| NC(CCC(=O)O)C(=O)O (racemic) [DL-Glutamic acid] | 12.8 |

Same assay, conditions: nitrogen source 0.3296 g/L nitrogen; isolate OWVT-1; 5 weeks

| SMILES | Growth mm-in-diam, on agar |
| --- | --- |
| N[C@@H](CSSC[C@H](N)C(=O)O)C(=O)O [L-cystine] | 0.0^ mm-in-diam |
| NC(N)=O [Urea] | 16.7 mm-in-diam |
| C[C@@H](O)[C@H](N)C(=O)O (racemic) [DL-Threonine] | 9.0 mm-in-diam |
| NC(CO)C(=O)O (racemic) [DL-Serine] | 17.2 mm-in-diam |
| NCC(=O)O [Glycine] | 10.7 mm-in-diam |
| NC(=O)C[C@H](N)C(=O)O [L-Asparagine] | 20.8 mm-in-diam |
| CSCCC(N)C(=O)O (racemic) [DL-Methionine] | 0.0^ mm-in-diam |
| N[C@@H](Cc1ccccc1)C(=O)O [L-Phenylalanine] | 17.5 mm-in-diam |
| NC(CCC(=O)O)C(=O)O (racemic) [DL-Glutamic acid] | 18.7 mm-in-diam |

Same assay, conditions: nitrogen source; isolate ATCC46487

| SMILES | Spore germination %, on agar [%] |
| --- | --- |
| N[C@@H](CSSC[C@H](N)C(=O)O)C(=O)O [L-cystine] | 14.4 |
| NC(N)=O [Urea] | 91.1 |
| C[C@@H](O)[C@H](N)C(=O)O (racemic) [DL-Threonine] | 93.3 |
| NC(CO)C(=O)O (racemic) [DL-Serine] | 84.4 |
| NCC(=O)O [Glycine] | 75.6 |
| NC(=O)C[C@H](N)C(=O)O [L-Asparagine] | 93.3 |
| CSCCC(N)C(=O)O (racemic) [DL-Methionine] | 74.4 |
| N[C@@H](Cc1ccccc1)C(=O)O [L-Phenylalanine] | 77.8 |
| NC(CCC(=O)O)C(=O)O (racemic) [DL-Glutamic acid] | 74.4 |

Same assay, conditions: nitrogen source; isolate ATCC46487; 5 weeks

| SMILES | growth in liquit culture (visual rating) | Sporulation 10^3/cm^2, on agar |
| --- | --- | --- |
| NC(N)=O [Urea] | IV (IV = the pellet diameter larger than 1 cm, but the total volume distribution less than 5 ml) |  |
| CSCCC(N)C(=O)O (racemic) [DL-Methionine] | III (III = hyphae growth or colonies form a pellet, less than 2.5 ml) | 3.2 10^3/cm^2 |
| N[C@@H](Cc1ccccc1)C(=O)O [L-Phenylalanine] |  | 7.9 10^3/cm^2 |

Same assay, conditions: nitrogen source; isolate JA16-1

| SMILES | Spore germination %, on agar [%] |
| --- | --- |
| N[C@@H](CSSC[C@H](N)C(=O)O)C(=O)O [L-cystine] | 4.4 |
| NC(N)=O [Urea] | 85.6 |
| C[C@@H](O)[C@H](N)C(=O)O (racemic) [DL-Threonine] | 83.3 |
| NC(CO)C(=O)O (racemic) [DL-Serine] | 87.8 |
| NCC(=O)O [Glycine] | 93.3 |
| NC(=O)C[C@H](N)C(=O)O [L-Asparagine] | 85.5 |
| CSCCC(N)C(=O)O (racemic) [DL-Methionine] | 70.0 |
| N[C@@H](Cc1ccccc1)C(=O)O [L-Phenylalanine] | 86.7 |
| NC(CCC(=O)O)C(=O)O (racemic) [DL-Glutamic acid] | 90.0 |

Same assay, conditions: nitrogen source; isolate JA16-1; 5 weeks

| SMILES | growth in liquit culture (visual rating) | Sporulation 10^3/cm^2, on agar |
| --- | --- | --- |
| N[C@@H](CSSC[C@H](N)C(=O)O)C(=O)O [L-cystine] | 0 |  |
| C[C@@H](O)[C@H](N)C(=O)O (racemic) [DL-Threonine] | IV (IV = the pellet diameter larger than 1 cm, but the total volume distribution less than 5 ml) |  |
| NC(CO)C(=O)O (racemic) [DL-Serine] | III (III = hyphae growth or colonies form a pellet, less than 2.5 ml) |  |
| NCC(=O)O [Glycine] | III (III = hyphae growth or colonies form a pellet, less than 2.5 ml) |  |
| NC(=O)C[C@H](N)C(=O)O [L-Asparagine] | IV (IV = the pellet diameter larger than 1 cm, but the total volume distribution less than 5 ml) |  |
| CSCCC(N)C(=O)O (racemic) [DL-Methionine] | I | 10.8 10^3/cm^2 |
| N[C@@H](Cc1ccccc1)C(=O)O [L-Phenylalanine] |  | 79.0 10^3/cm^2 |

Same assay, conditions: nitrogen source; isolate OWVT-1

| SMILES | Spore germination %, on agar [%] |
| --- | --- |
| N[C@@H](CSSC[C@H](N)C(=O)O)C(=O)O [L-cystine] | 5.6 |
| NC(N)=O [Urea] | 64.4 |
| C[C@@H](O)[C@H](N)C(=O)O (racemic) [DL-Threonine] | 48.9 |
| NC(CO)C(=O)O (racemic) [DL-Serine] | 72.2 |
| NCC(=O)O [Glycine] | 60.0 |
| NC(=O)C[C@H](N)C(=O)O [L-Asparagine] | 70.0 |
| CSCCC(N)C(=O)O (racemic) [DL-Methionine] | 63.3 |
| N[C@@H](Cc1ccccc1)C(=O)O [L-Phenylalanine] | 68.3 |
| NC(CCC(=O)O)C(=O)O (racemic) [DL-Glutamic acid] | 48.9 |

Same assay, conditions: nitrogen source; isolate OWVT-1; 5 weeks

| SMILES | growth in liquit culture (visual rating) | Sporulation 10^3/cm^2, on agar |
| --- | --- | --- |
| C[C@@H](O)[C@H](N)C(=O)O (racemic) [DL-Threonine] | III (III = hyphae growth or colonies form a pellet, less than 2.5 ml) |  |
| NC(CO)C(=O)O (racemic) [DL-Serine] | IV (IV = the pellet diameter larger than 1 cm, but the total volume distribution less than 5 ml) |  |
| NCC(=O)O [Glycine] | III (III = hyphae growth or colonies form a pellet, less than 2.5 ml) |  |
| NC(=O)C[C@H](N)C(=O)O [L-Asparagine] | III (III = hyphae growth or colonies form a pellet, less than 2.5 ml) |  |
| CSCCC(N)C(=O)O (racemic) [DL-Methionine] | I | 0.0 10^3/cm^2 |
| N[C@@H](Cc1ccccc1)C(=O)O [L-Phenylalanine] | IV (IV = the pellet diameter larger than 1 cm, but the total volume distribution less than 5 ml) | 15.9 10^3/cm^2 |
| NC(CCC(=O)O)C(=O)O (racemic) [DL-Glutamic acid] | III (III = hyphae growth or colonies form a pellet, less than 2.5 ml) |  |
